According to publication PMC5554537 (Frontiers in Pharmacology, 2017):
Like-named read-outs stand apart in the source and are kept apart here.

Assays:
[1] = Plasma, liver and brain PK after i.p. dosing with M14; format: in vivo; settings: i.p. M14 135 mg/kg; for half-life: read-out: Terminal T1/2
Experimental: Concentration-time data were analyzed by non-compartmental analysis using Phoenix WinNonlin (ver 6.4, Build 6.4.0768 Pharsight, United States); all AUC values were extrapolated to infinity using the linear trapezoidal rule. A compartmental model for plasma PK after dosing with SN30000 or M14 was fitted using Phoenix NLME v1.3 with random effects on the metabolite volumes of distribution, and temperature effects based on the observed body temperature at the last measurement time. Temperature effects were added or removed until there was no significant change in the log likelihood. Model fits were further assessed by visual inspection of the residuals and predicted PK.

[2] = Stability in mouse plasma (QC samples); format: physicochemical
From the text: using octa-deuterated internal standards of SN30000, M13 and M14 synthesised as previously reported (Wang et al., 2012). Intra- and inter-day precision (expressed as relative standard deviation (RSD) and accuracy (expressed as percentage of the nominal value) were deter mined by analy sis of replicates (n=6) of low and high quality control (QC) samples on three different days. The lower limit of quantitation (LLOQ) was defined as the lowest concentration providing RSD and accuracy < 20%. Recovery from plasma and liver ho mogenates was tested at the three QC levels. The recoveries were evaluated by comparing extracted samples with blank extracted solutions spiked with analytes of the same amount.
Matrix effects, defined as the change in response due to the presence of other substances in the samples, were evaluated by comparing the analytes diluted into the blank plasma or liver extracted solution with that of the same stock solutions diluted in water. Three different concentration levels (low, medium and high QC) were evaluated by analysing three samples at each level. Accuracy , precision, recovery and matrix effects were all acceptable over the concentration ranges evaluated for plas ma (Supplementary Table 1) and for liver homogenates (Supplementary Table 2).
Stability of the analytes in mouse plasma (Supplementary Table 3) or liver homogenate (Supplementary Table 4) was confirmed during holding of QC samples on ice for up to 2 h under nor mal laboratory lighting, although there was a trend towards loss of SN30000 in plasma samples held in clear microcentrifuge tubes which may reflect the known photosensitivity of the compound (Gu et al., 2014). This loss was reduced by use of red microcentrifuge tubes, and eliminated by black tubes. Stability in both matrices was also confir med for one month storage at -80°C and for three freeze-thaw cycles, while MeOH-deproteinised samples w ere stable for 12 h at 4°C in the autosampler (Supplementary Tables

[3] = Plasma protein binding by equilibrium dialysis; format: in vitro ADME; settings: NIH-III mouse plasma, 37°C, 6 h
Experimental: TABLE 11: Protein binding of SN30000, M14 and M18 at the indicated concentrations in NIH-III mouse plasma, measured by equilibrium dialysisa.
(µM) Percent Protein Bound (Mean ± SD)b […]
a Protein binding was evaluated by equilibrium dialysis using a high throughput plate with 12-14KDa dialysis membrane (HTDialysis, Gales Ferry, CT) as described by Banker et al., 2003, with modification. Briefly, 100 µL samples of plasma containing SN30000 or metabolites (M14 and M18) were dialysed against 100 µL PBS (pH 7.4) in an incubator (Innova-42, New Brunswick Scientific, US ) at 37°C with shaking at 80 rpm for 6 h. To achieve matrix match, 10 µL of blank plasma was added to 90 µL of the PBS sample and 90 µL of PBS was added to 10 µL of the plasma sample. Proteins were precipitated with 3 vol of ice-cold MeCN, the centrifuged supernatants were mixed with 2 vol 45 mM ammonium formate buffer pH 4.5, and 50 µL samples were analysed by HPLC with absorbance […]
bValues are mean and SD for triplicate samples.

[4] = plasma deproteinised in 3 vol MeOH, 12 h autosampler at 4°C, nominal SN30000 0.5, M14 0.25, M13 0.1 µM
[5] = plasma deproteinised in 3 vol MeOH, 12 h autosampler at 4°C, nominal SN30000 5, M14 2.5, M13 1 µM
[6] = plasma deproteinised in 3 vol MeOH, 12 h autosampler at 4°C, nominal SN30000 50, M14 25, M13 10 µM
[7] = plasma, 1 month at -80°C, nominal SN30000 0.5, M14 0.25, M13 0.1 µM
[8] = plasma, 1 month at -80°C, nominal SN30000 5, M14 2.5, M13 1 µM
[9] = plasma, 1 month at -80°C, nominal SN30000 50, M14 25, M13 10 µM
[10] = plasma, 1 h on ice, black vial, nominal SN30000 0.5, M14 0.25, M13 0.1 µM
[11] = plasma, 1 h on ice, black vial, nominal SN30000 5, M14 2.5, M13 1 µM
[12] = plasma, 1 h on ice, black vial, nominal SN30000 50, M14 25, M13 10 µM
[13] = plasma, 1 h on ice, clear vial, nominal SN30000 0.5, M14 0.25, M13 0.1 µM
[14] = plasma, 1 h on ice, clear vial, nominal SN30000 5, M14 2.5, M13 1 µM
[15] = plasma, 1 h on ice, clear vial, nominal SN30000 50, M14 25, M13 10 µM
[16] = plasma, 1 h on ice, red vial, nominal SN30000 0.5, M14 0.25, M13 0.1 µM
[17] = plasma, 1 h on ice, red vial, nominal SN30000 5, M14 2.5, M13 1 µM
[18] = plasma, 1 h on ice, red vial, nominal SN30000 50, M14 25, M13 10 µM
[19] = plasma, 2 h on ice, black vial, nominal SN30000 0.5, M14 0.25, M13 0.1 µM
[20] = plasma, 2 h on ice, black vial, nominal SN30000 5, M14 2.5, M13 1 µM
[21] = plasma, 2 h on ice, black vial, nominal SN30000 50, M14 25, M13 10 µM
[22] = plasma, 2 h on ice, clear vial, nominal SN30000 0.5, M14 0.25, M13 0.1 µM
[23] = plasma, 2 h on ice, clear vial, nominal SN30000 5, M14 2.5, M13 1 µM
[24] = plasma, 2 h on ice, clear vial, nominal SN30000 50, M14 25, M13 10 µM
[25] = plasma, 2 h on ice, red vial, nominal SN30000 0.5, M14 0.25, M13 0.1 µM
[26] = plasma, 2 h on ice, red vial, nominal SN30000 5, M14 2.5, M13 1 µM
[27] = plasma, 2 h on ice, red vial, nominal SN30000 50, M14 25, M13 10 µM
[28] = plasma, three freeze-thaw cycles, nominal SN30000 0.5, M14 0.25, M13 0.1 µM
[29] = plasma, three freeze-thaw cycles, nominal SN30000 5, M14 2.5, M13 1 µM
[30] = plasma, three freeze-thaw cycles, nominal SN30000 50, M14 25, M13 10 µM

c1c2c(cc3nc(CCCN4CCOCC4)nnc13)CCC2 [M13]
half-life ([1]; NIH-III nude, mouse, ip, brain): 26 min
half-life ([1]; NIH-III nude, mouse, ip, liver): 32.7 min
Cmax ([1]; NIH-III nude, mouse, ip, plasma, read-out: Cmax): 4 ± 0.63 µM
half-life ([1]; NIH-III nude, mouse, ip, plasma): 40 min
AUC ([1]; brain): 5.3 µmol·h/kg
Cmax ([1]; brain): 11.0 ± 1.6 µmol/kg
AUC ([1]; liver): 14.9 µmol·h/kg
Cmax ([1]; liver): 34.1 ± 5.4 µmol/kg
AUC ([1]; plasma): 1.79 µmol·h/kg
Bias [2, 4]: -3.42%
Measured conc [2, 4]: 0.10 µM
Bias [2, 5]: -1.26%
Measured conc [2, 5]: 0.99 µM
Bias [2, 6]: 5.41%
Measured conc [2, 6]: 10.54 µM
Bias [2, 7]: 1.68%
Measured conc [2, 7]: 0.10 µM
Bias [2, 8]: 1.94%
Measured conc [2, 8]: 1.00 µM
Bias [2, 9]: 1.85%
Measured conc [2, 9]: 11.05 µM
Bias [2, 10]: -7.00%
Measured conc [2, 10]: 0.09 µM
Bias [2, 11]: -7.17%
Measured conc [2, 11]: 0.93 µM
Bias [2, 12]: 5.90%
Measured conc [2, 12]: 10.59 µM
Bias [2, 13]: -7.05%
Measured conc [2, 13]: 0.09 µM
Bias [2, 14]: -3.76%
Measured conc [2, 14]: 0.96 µM
Bias [2, 15]: -3.61%
Measured conc [2, 15]: 9.64 µM
Bias [2, 16]: -5.72%
Measured conc [2, 16]: 0.09 µM
Bias [2, 17]: -5.29%
Measured conc [2, 17]: 0.95 µM
Bias [2, 18]: 0.10%
Measured conc [2, 18]: 10.01 µM
Bias [2, 19]: -0.52%
Measured conc [2, 19]: 0.10 µM
Bias [2, 20]: 1.13%
Measured conc [2, 20]: 1.01 µM
Bias [2, 21]: 0.55%
Measured conc [2, 21]: 10.06 µM
Bias [2, 22]: -9.85%
Measured conc [2, 22]: 0.09 µM
Bias [2, 23]: -4.92%
Measured conc [2, 23]: 0.95 µM
Bias [2, 24]: -8.95%
Measured conc [2, 24]: 9.10 µM
Bias [2, 25]: -7.29%
Measured conc [2, 25]: 0.09 µM
Bias [2, 26]: -4.71%
Measured conc [2, 26]: 0.95 µM
Bias [2, 27]: -3.91%
Measured conc [2, 27]: 9.61 µM
Bias [2, 28]: -4.05%
Measured conc [2, 28]: 0.10 µM
Bias [2, 29]: -2.61%
Measured conc [2, 29]: 0.97 µM
Bias [2, 30]: 4.39%
Measured conc [2, 30]: 10.44 µM

O=C(O)CCc1nc2cc3c(cc2[n+]([O-])n1)CCC3 [M18]
half-life ([1]; NIH-III nude, mouse, in vivo, ip, 135 mg/kg, liver): 144 min
Cmax ([1]; NIH-III nude, mouse, in vivo, ip, 135 mg/kg, plasma, read-out: Cmax): 144 ± 5.3 µM
half-life ([1]; NIH-III nude, mouse, in vivo, ip, 135 mg/kg, plasma): 182 min
Detection in brain [1]: undetectable in brain
AUC ([1]; liver): 93.3 µmol·h/kg
Cmax ([1]; liver): 40.0 ± 3.0 µmol/kg
AUC ([1]; plasma): 349 µmol·h/kg
Percent Protein Bound (Mean ± SD) ([3]; 10 µM): 91.77 ± 0.01%
Percent Protein Bound (Mean ± SD) ([3]; 100 µM): 90.32 ± 0.01%

[O-][n+]1nc(CCCN2CCOCC2)[n+]([O-])c2cc3c(cc21)CCC3 [SN30000, 3-(3-Morpholinopropyl)-7,8-dihydro-6H-indeno[5,6-e][1,2,4]triazine 1,4-dioxide]
Percent Protein Bound (Mean ± SD) ([3]; 10 µM): 21.93 ± 0.17%
Percent Protein Bound (Mean ± SD) ([3]; 100 µM): 26.68 ± 0.04%
Bias [2, 4]: -0.12%
Measured conc [2, 4]: 0.50 µM
Bias [2, 5]: -0.22%
Measured conc [2, 5]: 4.99 µM
Bias [2, 6]: 7.93%
Measured conc [2, 6]: 53.97 µM
Measured conc [2, 7]: 0.48 µM
Bias [2, 8]: 1.44%
Measured conc [2, 8]: 4.92 µM
Bias [2, 9]: 2.04%
Measured conc [2, 9]: 53.90 µM
Bias [2, 10]: -0.80%
Measured conc [2, 10]: 0.50 µM
Bias [2, 11]: -7.17%
Measured conc [2, 11]: 4.64 µM
Bias [2, 12]: 5.03%
Measured conc [2, 12]: 52.5 µM
Bias [2, 13]: -7.83%
Measured conc [2, 13]: 0.46 µM
Bias [2, 14]: -7.91%
Measured conc [2, 14]: 4.60 µM
Bias [2, 15]: -7.21%
Measured conc [2, 15]: 46.39 µM
Bias [2, 16]: -3.33%
Measured conc [2, 16]: 0.48 µM
Bias [2, 17]: -7.29%
Measured conc [2, 17]: 4.64 µM
Bias [2, 18]: -4.85%
Measured conc [2, 18]: 47.57 µM
Bias [2, 19]: 1.31%
Measured conc [2, 19]: 0.51 µM
Bias [2, 20]: 0.11%
Measured conc [2, 20]: 5.01 µM
Bias [2, 21]: 2.32%
Measured conc [2, 21]: 51.16 µM
Bias [2, 22]: -14.4%
Measured conc [2, 22]: 0.43 µM
Bias [2, 23]: -12.3%
Measured conc [2, 23]: 4.38 µM
Bias [2, 24]: -14.9%
Measured conc [2, 24]: 42.53 µM
Bias [2, 25]: -10.09%
Measured conc [2, 25]: 0.45 µM
Bias [2, 26]: -12.57%
Measured conc [2, 26]: 4.37 µM
Bias [2, 27]: -8.13%
Measured conc [2, 27]: 45.94 µM
Bias [2, 28]: 0.56%
Measured conc [2, 28]: 0.50 µM
Bias [2, 29]: -2.87%
Measured conc [2, 29]: 4.86 µM
Bias [2, 30]: 6.72%
Measured conc [2, 30]: 53.36 µM
